Test [1] relates to VZV (strain CaQu). The experiment in a line: Anti-VZV activity assay (plaque reduction in HEF cells). It is filed as cell-based, varicella zoster virus. Here is the method: This experiment was carried out based on the method described by Shigeta S., The Journal of Infectious Diseases, 147, 3, 576-584 (1983). Briefly, 10,000 human embryonic fibroblast (HEF) cells were inoculated in a 96-well microtiter plate, using a growth culture medium [Eagle MEM (Nissui) supplemented with 10% (v/v) fetal bovine serum (FBS; Sigma)], for culturing in 5% CO2 at 37° C. for 4 days until a monolayer was formed. After the cells were washed with a maintenance culture medium (MEM supplemented with 2% FBS), VZV (strain CaQu) preliminarily diluted to 20 to 30 pfu/100 μl with the maintenance culture medium was inoculated at 100 μl/well. The plate was centrifuged at 2,000 rpm at ambient temperature for 20 minutes and was then incubated in 5% CO2 at 37° C. for 3 hours, for infection with VZV. After the plate was washed three times with the maintenance culture medium, 100 μl of a test drug diluted to an appropriate concentration with the maintenance culture medium was added to each well. After the cells were cultured in 5% CO2 at 37° C. for 3 to 4 days, 10% formalin/PBS was added at 100 μl/well to fix the cells for 2 to 3 hours. After discarding the fixing solution and culture supernatant and subsequently washing the plate with water, a staining solution (0.025% Crystal Violet) was added at 50 μl/well for staining for 2 to 3 minutes, and then, the plate was washed with water and dried at 37° C. Cellular death is induced in the HEF cells infected with VZV, so that plaques of the dead cells are formed in the monolayer of the HEF cells.

The subject of test [2] is HSV-1 (strain KOS). The experiment in a line: Anti-HSV-1 activity assay (MTT, MRC-5 cells). Conditions: HSV-1 strain KOS in MRC-5 cells, 5 days culture, read-out: EC50 value (suppression of cellular death of MRC-5 cells via HSV-1 replication). The test is classed as cell-based. Here is the method:
10,000 MRC-5 cells were inoculated and cultured in a 96-well microtiter plate, using the growth culture medium in 5% CO2 at 37° C. for 4 to 5 days until a monolayer was formed. After the cells were washed with the maintenance culture medium, 100 μl of the maintenance culture medium dissolving therein an appropriate concentration of a test reagent was added to each well. Immediately after the test drug was added, an HSV-1 (strain KOS) solution was inoculated at 50 TCID50 (50% tissue culture infectious dose)/100 μl. After the cells were cultured in 5% CO2 at 37° C. for 5 days, 20 μl of MTT solution [3-(4,5-dimethyl-2-thiazolyl)-2,5-diphenyl-2H-tetrazolium bromide; Sigma] (diluted with PBS to 7.5 mg/ml) was added to each well, for another 24-hour incubation. After the culture medium was discarded, 100 μl of a solvent (prepared by adding 10% (v/v) Triton X 100 and 0.4% hydrochloric acid to isopropanol) was added to each well, to solubilize the generated formazan. The absorbance at 540 nm or 690 nm was measured with a microplate reader. Based on the suppression ratio (%) of the cellular death of the MRC-5 cell via HSV-1 replication, the EC50 value of the test drug was calculated.

Test [3] concerns HSV-1 strain WT-51. The experiment in a line: Cutaneously HSV-1-infected hairless mice model. The test is classed as in vivo, hairless mice [HR-1]. To be noted: oral, methyl cellulose suspension, 10 mg/kg twice daily for 5 days; from AUC of mean composite disease score over 17 days. Here is the method:
Female hairless mice [HR-1, 7 weeks of age] were infected with a virus suspension containing HSV-1 strain WT-51 (1.5×10^4 PFU/15 μl) on the lateral side of the body, which had scratched with a needle, while anesthetized with diethyl ether, as previously described by H. Machida et al. [Antiviral Res., 1992, 17, 133-143]. Tested compounds were administered orally as a methyl cellulose suspension, except for compounds marked with asterisk which were dissolved in 20% Cremophor EL and 20% polyethylene glycol, starting at 3 hours after the infection, and then at a dose of 10 mg/kg twice daily for a period of 5 days. Hairless mice were inspected daily and disease severity was determined using the following criteria: • Score 0: no signs of infection. • Score 1: localized, barely perceptible small vesicles. • Score 2: slight vesicle spread. • Score 3: large patches of vesicles formed. • Score 4: zosteriform vesicles. • Score 5: large patches of ulcers formed. • Score 6: zosteriform with severe large ulcers. • Score 7: hind limb paralysis or death.
The zosteriform skin lesion and neurological scores for each animal were combined to produce a composite score. The mean composite score was used to represent the disease in each study group. The disease course was measured for 17 days and the extent of the disease was represented by the area under the curve (AUC) of the mean daily composite disease score each day after viral inoculation. The inhibitory activities of tested compounds were calculated using the AUCs.

Where [4] appears, read: Human alphaherpesvirus 3, read-out: EC50 value (concentration to inhibit 50% of the plaques), plaque count after 3 to 4 days.
The mark [5] stands for this setting: Human alphaherpesvirus 1, MRC5, 120 h.

Read-outs that look alike come from different tables or passages of the source.

Regarding `Cc1cccc(C)c1N(CC(=O)Nc1ccc(-c2cocn2)cc1)C(=O)C1CCS(=O)(=O)CC1` [Example 1, N-(2,6-dimethylphenyl)-N-(2-{[4-(1,3-oxazol-4-yl)phenyl]amino}-2-oxoethyl)tetrahydro-2H-thiopyran-4-carboxamide 1,1-dioxide], the EC50 in test [1] (setting [4]) and in test [2] (setting [5]) was 75 nM throughout.

Turning to `Cc1ccc(N(CC(=O)Nc2ccc(-c3cocn3)cc2)C(=O)C2CCS(=O)(=O)CC2)cc1` [Example 2, N-(4-methylphenyl)-N-(2-{[4-(1,3-oxazol-4-yl)phenyl]amino}-2-oxoethyl)tetrahydro-2H-thiopyran-4-carboxamide 1,1-dioxide], the “Inhibitory activity (%)” value in test [3] was determined as 85%.

For `O=C(CN(C(=O)C1CCS(=O)(=O)CC1)c1ccc2c(c1)CCC2)Nc1ccc(-c2cocn2)cc1` [Example 11], the EC50 was 60 nM in test [1] (read-out: EC50 value (concentration to inhibit 50% of the plaques), plaque count after 3 to 4 days) and 40 nM in test [2]. Besides, in test [3], the “Inhibitory activity (%)” value was found to be 92%.

As for `Cc1cc(N(CC(=O)Nc2ccc(-c3cocn3)cc2)C(=O)C2CCS(=O)(=O)CC2)ccc1Cl` [Example 13, N-(4-chloro-3-methylphenyl)-N-(2-{[4-(1,3-oxazol-4-yl)phenyl]amino}-2-oxoethyl)tetrahydro-2H-thiopyran-4-carboxamide 1,1-dioxide], the EC50 in test [1] (setting [4]) amounted to 33 nM; in test [2] (setting [5]) it was 6 nM.

For the compound `Cc1cccc(N(CC(=O)Nc2ccc(-c3ncon3)cc2)C(=O)C2CCS(=O)(=O)CC2)c1C` [Example 24, N-(2,3-dimethylphenyl)-N-(2-{[4-(1,2,4-oxadiazol-3-yl)phenyl]amino}-2-oxoethyl)tetrahydro-2H-thiopyran-4-carboxamide 1,1-dioxide], in test [3], the “Inhibitory activity (%)” value was found to be 69%.

As for `Cc1cccc(C)c1N(CC(=O)Nc1ccc(-c2ncon2)cc1)C(=O)C1CCS(=O)(=O)CC1` [Example 27, N-(2,6-dimethylphenyl)-N-(2-{[4-(1,2,4-oxadiazol-3-yl)phenyl]amino}-2-oxoethyl)tetrahydro-2H-thiopyran-4-carboxamide 1,1-dioxide], the EC50 in test [1] (setting [4]) is 100 nM; in test [2] (setting [5]) it was 60 nM. Moreover, in test [3], the “Inhibitory activity (%)” value came out at 86%.

For the compound `Cc1cc(N(CC(=O)Nc2ccc(-c3ncon3)cc2)C(=O)C2CCS(=O)(=O)CC2)ccc1Cl` [Example 37, N-(4-chloro-3-methylphenyl)-N-(2-{[4-(1,2,4-oxadiazol-3-yl)phenyl]amino}-2-oxoethyl)tetrahydro-2H-thiopyran-4-carboxamide 1,1-dioxide], the EC50 in test [1] (setting [4]) was determined as 95 nM; in test [2] (setting [5]), 26 nM.

Regarding `Cc1ccc(N(CC(=O)Nc2ccc(-c3ncon3)cc2)C(=O)C2CCS(=O)(=O)CC2)c(C)c1F` [Example 39, N-(3-fluoro-2,4-dimethylphenyl)-N-(2-{[4-(1,2,4-oxadiazol-3-yl)phenyl]amino}-2-oxoethyl)tetrahydro-2H-thiopyran-4-carboxamide 1,1-dioxide], the EC50 in test [1] (setting [4]) was 82 nM; in test [2] (setting [5]) it was 29 nM.

Take `Nc1nc2c(ncn2COCCO)c(=O)[nH]1` [acyclovir, reference compound]: the EC50 in test [1] (setting [4]) came to 3400 nM; in test [2] (setting [5]) it was 480 nM.

For the origin of these results see US6903125B2, “Tetrahydro-2H-thiopyran-4-carboxamide derivative” (Yamanouchi Pharmaceutical Co., Ltd., priority 2003, dated 2005).
